Patent US20130022684A1 (HANMI SCIENCE CO., LTD., priority 2010, published 2013)
In brackets after ≈: the same amount, converted by molar mass. Read-outs that look alike come from different tables or passages of the source.

Columns and labels:
[1] = parameters: species or system SD rats; conditions: rat, in vivo, po, 88 mg
Description: The microcapsules were orally administered to 7 week-old male SD rats (Sprague Dawley, Samtako, 4 rats per one group, 7 days feeding ad libitum) by using Sonde. Blood samples were taken from the rats in a predetermined time interval, and the respective pharmacokinetic profiles were evaluated.

physchem = conditions: water, thermodynamic from solid
Description: Each of distilled water and artificial intestinal juice (pH 6.8; USP) was added thereto to fill 100 mL, and the mixture was vigorously blended for 1 hr and passed through a 0.45 μm filter, followed by HPLC analysis.

[2] = fenofibric acid in plasma; cited from earlier work

## CC(C)(Oc1ccc(C(=O)c2ccc(Cl)cc2)cc1)C(=O)[O-].C[N+](C)(C)CCO [Choline fenofibrate]
[1]
  AUC 0-24: 3477.7 ± 558.9 µg·h/mL
  Cmax: 309.4 ± 62.2 µg/mL

## CC(C)OC(=O)C(C)(C)Oc1ccc(C(=O)c2ccc(Cl)cc2)cc1 [Fenofibrate]
[1]; male, Sprague-Dawley
  AUC 0-24: 2078.3 ± 610.5 µg·h/mL
  Cmax: 137.2 ± 37.9 µg/mL

## CC(C)(Oc1ccc(C(=O)c2ccc(Cl)cc2)cc1)C(=O)O [Fenofibric acid, 2-[4-(4-chlorobenzoyl)phenoxy]-2-methyl-propanoic acid]
[1]; male, Sprague-Dawley
  AUC 0-24: 2742.2 ± 218.1 µg·h/mL
  Cmax: 209.3 ± 26.1 µg/mL
physchem
  solubility at 1 hr: 165 µg/mL (≈ 518 µM)
[2]
  half-life of elimination in plasma: about 20 hours
  time of peak plasma levels after administration: about 5 hours
